Molecular target: T1, human PI3Kδ (Homo sapiens, UniProt O00329)
T1 construct: made in house
T1 sequence (O00329 2-1044 limits assumed): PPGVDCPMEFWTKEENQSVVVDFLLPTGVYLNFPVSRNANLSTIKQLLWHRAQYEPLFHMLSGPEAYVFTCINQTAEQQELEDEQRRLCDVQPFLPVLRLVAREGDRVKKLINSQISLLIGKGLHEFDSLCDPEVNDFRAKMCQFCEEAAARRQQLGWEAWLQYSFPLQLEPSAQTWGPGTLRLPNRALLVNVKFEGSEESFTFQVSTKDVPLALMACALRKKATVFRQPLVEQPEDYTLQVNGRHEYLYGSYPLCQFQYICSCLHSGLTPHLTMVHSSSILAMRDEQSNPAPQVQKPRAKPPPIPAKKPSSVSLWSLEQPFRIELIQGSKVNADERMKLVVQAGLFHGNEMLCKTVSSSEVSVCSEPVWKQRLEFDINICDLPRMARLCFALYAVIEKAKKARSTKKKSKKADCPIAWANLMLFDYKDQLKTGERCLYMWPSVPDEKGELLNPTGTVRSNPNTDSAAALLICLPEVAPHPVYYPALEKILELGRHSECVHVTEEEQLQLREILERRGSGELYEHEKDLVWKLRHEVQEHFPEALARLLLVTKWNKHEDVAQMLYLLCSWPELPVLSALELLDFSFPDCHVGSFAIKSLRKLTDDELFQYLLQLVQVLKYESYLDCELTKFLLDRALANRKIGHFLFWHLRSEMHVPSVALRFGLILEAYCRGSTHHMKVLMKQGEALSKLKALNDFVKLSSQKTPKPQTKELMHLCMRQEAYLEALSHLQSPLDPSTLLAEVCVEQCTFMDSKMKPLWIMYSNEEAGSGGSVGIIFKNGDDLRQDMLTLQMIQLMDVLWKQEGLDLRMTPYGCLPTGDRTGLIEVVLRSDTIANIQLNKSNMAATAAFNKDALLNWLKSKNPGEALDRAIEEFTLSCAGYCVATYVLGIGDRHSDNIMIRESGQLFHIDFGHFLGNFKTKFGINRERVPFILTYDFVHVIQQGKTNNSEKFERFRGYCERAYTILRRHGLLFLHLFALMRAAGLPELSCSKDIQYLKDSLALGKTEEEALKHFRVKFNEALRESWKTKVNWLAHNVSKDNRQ
Experiment: Biochemical PI3Kdelta (TR-FRET Adapta Universal Kinase Assay)
Details: mean of n measurements, read-out: PIK3d/ IC50
Experimental: Test compounds were dissolved in DMSO (10 mM) and transferred into 1.4 mL flat bottom or V-shaped Matrix tubes carrying a unique 2D matrix chip by individual Novartis compound hubs. The numbers of these chips were distinctively linked to Novartis Pharma Numbers. The stock solutions were stored at −20° C. if not used immediately. For the test procedure the vials were defrosted and identified by a scanner whereby a working sheet was generated that guided the subsequent working steps.
Compounds were either manually diluted in DMSO for individual experiments (96 wells enabling 10 cpds at 8 (single points) concentrations) as described in or prepared as described below if tested for profiling in 384-wells. This format enabled the assay of maximally 40 individual test compounds at 8 concentrations (single points) including 4 reference compounds. The dilution protocol included the production of “pre-dilution plates”, “master plates” and “assay plates”.
96 polypropylene well plates were used as pre-dilution plates. A total of 4 pre-dilution plates were prepared including 10 test compounds each on the plate positions A1-A10, one standard compound at A11 and one DMSO control at A12. Programs have been written to run these pipetting steps on the HamiltonSTAR robots.
Identical “assay plates” were then prepared by pipetting 50 nL each of compound dilutions of the “master plates” into 384-well “assay plates”. The compounds were mixed with 4.5 μL of assays components plus 4.5 μL enzyme corresponding to a 1:181 dilution enabling the final concentration of 10, 3.0, 1.0, 0.3, 0.1, 0.03, 0.01 and 0.003 μM, respectively. The preparation of the “master plates” was handled by the Matrix PlateMate Plus robot and replication of “assay plates” by the HummingBird robot.
Catalytically active human PI3Kα, PI3Kβ, PI3Kδ, and mTOR were cloned, expressed and purified as described (Maira S M, Stauffer F, Brueggen J, Furet P, Schnell C, Fritsch C, Brachmann S, Chène P, de Pover A, Schoemaker K, Fabbro D, Gabriel D, Simonen M, Murphy L, Finan P, Sellers W, García-Echeverría C (2008), Mol Cancer Ther. 7:1851-63 and Maira S M, Pecchi S, Brueggen J, Huh K, Schnell C, Fritsch C, Nagel T, Wiesmann M, Brachmann S, Dorsch M, Chène P, Schoemaker K, De Pover A, Menezes D, Fabbro D, Sellers W, García-Echeverría C, Voliva C F (2011), Mol. Cancer Ther. accepted).
The TR-FRET Adapta™ Universal Kinase Assay Kit was purchased from Invitrogen Corporation (Carlsbad/CA, USA) (Cat. No. PV5099). The kit contains the following reagents: Adapta Eu-anti-ADP Antibody (Europium labeled anti-ADP antibody in HEPES buffered saline, Cat. No. PV5097), Alexa Fluor® 647-labeled ADP tracer (Alexa Fluor® 647-labeled ADP tracer in HEPES buffered saline, Cat. No. PV5098), proprietary TR-FRET dilution buffer pH 7.5 (Cat. No. PV3574).
PIK3CD substrate Phosphatidylinositol was obtained from Invitrogen (vesicules consisting of 2 mM PI in 50 mM HEPES pH7.5; Cat. No. PV5371). PIK3CG substrate Phosphatidylinositol-4,5-bisphosphate (PIP(4,5)2 was obtained from Invitrogen (PIP2:PS large unilamellar vesicules consisting of 1 mM PIP2: 19 mM PS in 50 mM HEPES pH7.5, 3 mM MgCl2, 1 mM EGTA; Cat. No. PV5100).
Time-Resolved Fluorescence Resonance Energy Transfer (TR-FRET) is a technology based on energy transfer between two adjacent dyes, from an excited electron in one dye (the donor) to an electron of an adjacent dye (the acceptor) through resonance, then released as a photon. This energy transfer is detected by an increase in the fluorescence emission of the acceptor, and a decrease in the fluorescence emission of the donor. TR-FRET assays for protein kinases use a long-lifetime lanthanide Terbium or Europium chelates as the donor species which overcome interference from compound autofluorescence or light scatter from precipitated compounds, by introducing a delay after excitation by a flashlamp excitation source. Results are often expressed as a ratio of the intensities of the acceptor and donor fluorophores.

SMILES | IC50 [nM]
COC[C@H]1COC(=O)N1c1cc(-c2cnc(N)nc2C(F)(F)F)nc(N2CCOCC2)n1 [Example 5, (S)-3-(2′-Amino-2-morpholin-4-yl-4′-trifluoromethyl-[4,5′]bipyrimidinyl-6-yl)-4-methoxymethyl-oxazolidin-2-one] | 4
C[C@H]1OC(=O)N(c2cc(-c3cnc(N)nc3C(F)(F)F)nc(N3CCOCC3)n2)[C@H]1CO [Example 18, (4S,5R)-3-(2′-Amino-2-morpholin-4-yl-4′-trifluoromethyl-[4,5′]bipyrimidinyl-6-yl)-4-hydroxymethyl-5-methyl-oxazolidin-2-one] | 8
Nc1ncc(-c2cc(N3C(=O)O[C@H]4CCCC[C@@H]43)nc(N3CCOCC3)n2)c(C(F)(F)F)n1 [Example 4, (3aS,7aS)-3-(2′-Amino-2-morpholin-4-yl-4′-trifluoromethyl-[4,5′]bipyrimidinyl-6-yl)-hexahydro-benzooxazol-2-one] | 4
Nc1ncc(-c2cc(N3C(=O)OC4C(O)CCC43)nc(N3CCOCC3)n2)c(C(F)(F)F)n1 (single isomer, unassigned) [Example 22A] | 4
C[C@H]1OC(=O)N(c2cc(-c3cnc(N)nc3C(F)(F)F)nc(N3CCOCC3)n2)[C@H]1COC=O [Example 12, Formic acid (4S,5R)-3-(2′-amino-2-morpholin-4-yl-4′-trifluoromethyl-[4,5′]bipyrimidinyl-6-yl)-5-methyl-2-oxo-oxazolidin-4-ylmethyl ester] | 59
C[C@H]1[C@@H](CCO)OC(=O)N1c1cc(-c2cnc(N)nc2C(F)(F)F)nc(N2CCOCC2)n1 [Example 23, (4S,5R)-3-(2′-Amino-2-morpholino-4′-(trifluoromethyl)-[4,5′-bipyrimidin]-6-yl)-5-(2-hydroxyethyl)-4-methyloxazolidin-2-one] | 9
[2H]C1([2H])OC([2H])([2H])C([2H])([2H])N(c2nc(-c3cnc(N)nc3C(F)(F)F)cc(N3C(=O)O[C@H](C)[C@@H]3CO)n2)C1([2H])[2H] [Example 8] | 21
CC1(C)OC(=O)N(c2cc(-c3cnc(N)nc3C(F)(F)F)nc(N3CCOCC3)n2)[C@H]1CO [Example 2, (S)-3-(2′-Amino-2-morpholin-4-yl-4′-trifluoromethyl-[4,5′]bipyrimidinyl-6-yl)-4-hydroxymethyl-5,5-dimethyl-oxazolidin-2-one] | 75
C[C@@H]1OC(=O)N(c2cc(-c3cnc(N)nc3C(F)(F)F)nc(N3CCOCC3)n2)[C@H]1CO [Example 6] | 11
C[C@H]1[C@H](CO)OC(=O)N1c1cc(-c2cnc(N)nc2C(F)(F)F)nc(N2CCOCC2)n1 [Example 15, (4S,5R)-3-(2′-Amino-2-morpholin-4-yl-4′-trifluoromethyl-[4,5′]bipyrimidinyl-6-yl)-5-hydroxymethyl-4-methyl-oxazolidin-2-one] | 15
C[C@H]1COC(=O)N1c1cc(-c2cnc(N)nc2C(F)(F)F)nc(N2CCOCC2)n1 [Example 1, (S)-3-(2′-Amino-2-morpholin-4-yl-4′-trifluoromethyl-[4,5′]bipyrimidinyl-6-yl)-4-methyl-oxazolidin-2-one] | 7
C[C@H]1COCCN1c1nc(-c2cnc(N)nc2C(F)(F)F)cc(N2C(=O)OC[C@@H]2C)n1 [Example 13, (S)-3-[2′-Amino-2-((S)-3-methyl-morpholin-4-yl)-4′-trifluoromethyl-[4,5′]bipyrimidinyl-6-yl]-4-methyl-oxazolidin-2-one] | 21
Nc1ncc(-c2cc(N3C[C@H](CO)OC3=O)nc(N3CCOCC3)n2)c(C(F)(F)F)n1 [Example 20, (R)-3-(2′-Amino-2-morpholin-4-yl-4′-trifluoromethyl-[4,5′]bipyrimidinyl-6-yl)-5-hydroxymethyl-oxazolidin-2-one] | 23
Nc1ncc(-c2cc(N3C(=O)OC[C@@H]3CCO)nc(N3CCOCC3)n2)c(C(F)(F)F)n1 [Example 9, (S)-3-(2′-Amino-2-morpholin-4-yl-4′-trifluoromethyl-[4,5′]bipyrimidinyl-6-yl)-4-(2-hydroxy-ethyl)-oxazolidin-2-one] | 32
C[C@H]1CN(c2cc(-c3cnc(N)nc3C(F)(F)F)nc(N3CCOCC3)n2)C(=O)O1 [Example 16, (S)-3-(2′-Amino-2-morpholin-4-yl-4′-trifluoromethyl-[4,5′]bipyrimidinyl-6-yl)-5-methyl-oxazolidin-2-one] | 21
[2H]C1([2H])OC([2H])([2H])C([2H])([2H])N(c2nc(-c3cnc(N)nc3C(F)(F)F)cc(N3C(=O)OC[C@@H]3C)n2)C1([2H])[2H] [Example 17, (S)-3-(2′-amino-2-D8-morpholino-4′-(trifluoromethyl)-[4,5′-bipyrimidin]-6-yl)-4-methyloxazolidin-2-one] | 8
C[C@H](O)CC1OC(=O)N(c2cc(-c3cnc(N)nc3C(F)(F)F)nc(N3CCOCC3)n2)[C@H]1C (single isomer, unassigned) [Example 25] | 7
Nc1ncc(-c2cc(N3C[C@@H](CO)OC3=O)nc(N3CCOCC3)n2)c(C(F)(F)F)n1 [Example 14, (S)-3-(2′-Amino-2-morpholin-4-yl-4′-trifluoromethyl-[4,5′]bipyrimidinyl-6-yl)-5-hydroxymethyl-oxazolidin-2-one] | 17
Nc1ncc(-c2cc(N3C(=O)O[C@@H]4[C@@H](O)CC[C@@H]43)nc(N3CCOCC3)n2)c(C(F)(F)F)n1 (racemic) [Example 22, (3aR*,6R*,6aR*)-3-(2′-Amino-2-morpholino-4′-(trifluoromethyl)-[4,5′-bipyrimidin]-6-yl)-6-hydroxyhexahydro-2H-cyclopenta[d]oxazol-2-one] | 6
CC1(CO)COC(=O)N1c1cc(-c2cnc(N)nc2C(F)(F)F)nc(N2CCOCC2)n1 (racemic) [Example 3, 3-(2′-amino-2-morpholino-4′-(trifluoromethyl)-4,5′-bipyrimidin-6-yl)-4-(hydroxymethyl)-4-methyloxazolidin-2-one] | 12

Source: patent US8865894B2, “Oxazolidin-2-one compounds and uses thereof” (Novartis AG, priority 2012, dated 2014)
